Assay results as given in PubChem BioAssay AID1626 (SRMLSC, 2009).

System: M. tuberculosis H37Rv growth inhibition
Test: M. tuberculosis H37Rv growth inhibitors, H37Rv strain (AID 1626)
Details: for IC90: measured here: IC90 against H37Rv; for CC50: measured here: Vero cell cytotoxicity

COc1ccc(NCc2ccc([N+](=O)[O-])s2)cc1
IC50: 59.4 µM | IC90: > 100 µM

COc1cc(/C=C/C(=O)c2c(O)n(CCc3ccccc3)c(=O)[nH]c2=O)ccc1O
IC50: 7.57 µM | IC90: 11.3 µM | CC50: 20.2 µM

COc1ccc(CNCc2cn(-c3cccc(F)c3)nc2-c2ccc(C)o2)cc1
IC50: 6.12 µM | IC90: 10.5 µM | CC50: > 40 µM

O=C(CNC(=O)c1ccc(-c2ccccc2)cc1)OCc1c(F)cccc1Cl
IC50: 7.49 µM | IC90: > 100 µM

N#CC1=C(N)NC(SCC(=O)c2ccccc2)=C(C#N)C12CCCC2
IC50: 7.73 µM | IC90: > 100 µM

O=C(O)c1ccc(Nc2nc(-c3cc4ccccc4oc3=O)cs2)cc1O
IC50: 20.1 µM | IC90: > 100 µM

Cc1nc(SCC(=O)Nc2cc(C)on2)c2c3c(sc2n1)CCCC3
IC50: < 0.195 µM | IC90: 13.8 µM | CC50: 21 µM

CCOc1ccc(-c2nnc(NC(=O)c3ccc(OCC(C)C)c(OC)c3)o2)cc1
IC50: 10.1 µM | IC90: > 100 µM | CC50: 25.3 µM

Cc1cc(NC(=O)CSc2nnc(-c3ccc4c(c3)OCCO4)o2)no1
IC50: 1.49 µM | IC90: 2.53 µM | CC50: > 40 µM

CCNC(=O)COC(=O)c1ccc(-c2nc3ccccc3s2)s1
IC50: 7.63 µM | IC90: 15 µM | CC50: > 40 µM

Cc1ccc(Nc2cc(C)nn2-c2nc(C)cc(=O)[nH]2)cc1
IC50: < 0.391 µM | IC90: 5.56 µM | CC50: 1.95 µM

Cc1ccc2c(c1)c1ncnc(N3CCc4ccccc4C3)c1n2C
IC50: 6.39 µM | IC90: 11.2 µM

CCN(Cc1nc2ccccc2c(=O)[nH]1)Cc1nc2ccsc2c(=O)[nH]1
IC50: 15.8 µM | IC90: > 100 µM | CC50: > 40 µM

O=C(Nc1nnc(SCc2ccc(F)cc2)s1)c1ccccn1
IC50: 0.342 µM | IC90: 5.05 µM | CC50: 4.74 µM

Cc1ccccc1-n1c(O)c(C=Nc2ccc3c(c2)OCO3)c(=O)[nH]c1=O
IC90: > 100 µM

CCCc1cc(-c2nc(-c3ccc(C)cc3)cs2)ccn1
IC50: 7.61 µM | IC90: 22.2 µM | CC50: > 40 µM

COc1ccc(CNc2nc3nc4c(c(=O)n3[nH]2)CCC4)cc1
IC50: 1.09 µM | IC90: > 100 µM

COc1ccc(C(=O)CCNc2ccc(C)c(Cl)c2)cc1
IC50: 58.9 µM | IC90: > 100 µM

CCCc1cc(=O)[nH]c(SCC(=O)Nc2nc3ccc(OCC)cc3s2)n1
CC50: > 40 µM

Cc1ccc(Nc2c(-c3ccccn3)nc3cccc(C)n23)cc1
IC50: 2.72 µM | IC90: 3.06 µM | CC50: 1.18 µM

CCOC(=O)CSc1nnc(-c2ccc(OC)cc2OC)o1
IC50: 1.24 µM | IC90: 2.38 µM

CCCCOC(=O)Nc1ccc(C(=O)OCCC)cc1
IC50: 2.34 µM | IC90: > 100 µM

CCOC(=O)C1=C(c2ccccc2)N=c2s/c(=C\c3ccc(O)cc3)c(=O)n2C1c1cccs1 (stereo unspecified)
IC50: 8.75 µM | IC90: > 100 µM | CC50: > 40 µM

CCOC(=O)C(/C=C(\C#N)C(=O)OCC)=C(/N)N1CCN(c2ccc(Cl)cc2)CC1
IC50: 11.7 µM | IC90: 13 µM

Cc1ccccc1OCc1nc(-c2ccc(NC(=O)c3cccs3)cc2)no1
IC50: 4.48 µM | IC90: 46.6 µM

O=c1[nH]c(CN2CCCCC2)nc2c1C1(CCCCC1)Cc1ccccc1-2
IC50: 4.01 µM | IC90: > 100 µM

COc1cc(CNCc2ccccn2)ccc1OCc1ccc(Cl)cc1Cl
IC50: 6.04 µM | IC90: 9.96 µM | CC50: > 40 µM

O=C(c1ccc2c3c(cccc13)CC2)C1CCCN(Cc2ccccn2)C1 (stereo unspecified)
IC50: 10 µM | IC90: > 100 µM | CC50: > 40 µM

FC(F)(F)c1cccc(Sc2nc(-c3ccccc3)nnc2C(F)(F)F)c1
IC50: 7.32 µM | IC90: > 100 µM | CC50: > 40 µM

COC(=O)CN1C(c2ccc(OC)cc2)=Nc2ccc(Cl)cc2C1c1ccccc1 (stereo unspecified)
IC50: 3.18 µM | IC90: 6.98 µM

COc1ccccc1OC(=O)CCN1c2ccccc2Sc2ccccc21
IC50: 11.8 µM | IC90: 17.5 µM

Cc1ccc(S(=O)(=O)CCc2nnc(NC(=O)c3ccccn3)s2)cc1
CC50: 38 µM

CC(C)(C)c1ccc(C(=O)/C=C2\NC(=O)CS2)cc1
IC50: 11.8 µM | IC90: > 100 µM | CC50: > 40 µM

Cc1cc2oc3c(c(=O)c2cc1C)C(c1cccc(Br)c1)N(Cc1ccco1)C3=O (stereo unspecified)
IC50: 5.92 µM | IC90: > 100 µM | CC50: 13.9 µM

CN(C)CCCn1c(SCC(=O)Nc2nc(-c3cccc(Br)c3)cs2)nc2ccccc2c1=O
IC50: 5.61 µM | IC90: 5.96 µM | CC50: 8.6 µM

CC(=O)C1=C(C)NC(SCC(=O)c2ccc(Cl)c(Cl)c2)=C(C#N)C1c1ccco1 (stereo unspecified)
IC50: 5.85 µM | IC90: 6.67 µM | CC50: > 40 µM

Cc1ccc(Cl)cc1NC1=C/C(=N\S(=O)(=O)c2cccs2)c2ccccc2C1=O
IC50: 1.91 µM | IC90: 3.21 µM | CC50: 5.83 µM

O=C(Nc1nc(-c2ccccn2)cs1)C1CC(=O)N(c2ccc3c(c2)OCCO3)C1 (stereo unspecified)
IC50: 17.2 µM | IC90: > 100 µM | CC50: 36.7 µM

O=c1cc(N=Nc2ccc(Cl)cc2)[nH]c(=O)[nH]1
IC50: 13 µM | IC90: 14.5 µM | CC50: 7.51 µM

Cc1coc2c1C(=O)C(=O)c1c-2ccc2c1CCCC2(C)C
IC50: 3.23 µM | IC90: 4.85 µM

COc1cccc2c1nc(C)c1cc(C)oc12
IC50: 5.65 µM | IC90: > 100 µM | CC50: > 40 µM

O=C(Nc1nc(-c2ccc(F)cc2)cs1)c1cnccn1
IC90: > 100 µM | CC50: > 40 µM

C=CCOc1ccc(/C=N/O)cc1Cl
IC90: > 100 µM

c1ccc(N2CCN(c3nc(-c4ccccn4)nc4ccccc34)CC2)cc1
IC50: 0.924 µM | IC90: 1.62 µM | CC50: 25.9 µM

COc1ccc(NC(C)c2cc(Cl)ccc2O)cc1 (stereo unspecified)
IC90: > 100 µM

N#C/C(=C/c1ccc(N2CCCCC2)o1)C(=O)NCCc1c[nH]c2ccccc12
IC50: 41 µM | IC90: > 100 µM | CC50: > 40 µM

COc1ccc(N=C2C(=O)Nc3c(C)cccc32)cc1
IC90: > 100 µM

CN(CCCC[C@H](CNCc1ccc(-c2ccccc2)cc1)N1C[C@H](c2ccccc2)N(CCc2ccc(Cl)c(Cl)c2)C(=O)C1=O)Cc1ccc(-c2ccccc2)cc1
IC50: 5.07 µM | IC90: 5.61 µM | CC50: 6.12 µM

N=C1S/C(=C\c2ccco2)C(=O)N1c1nccs1
IC50: < 0.195 µM | IC90: < 0.195 µM | CC50: 22.5 µM

O=C(CSc1nnc(-c2ccccc2Br)o1)N1CCc2ccccc2C1
IC50: 2.32 µM | IC90: 3.38 µM

Cc1ccccc1Nc1c(-c2ccccn2)nc2c(C)cccn12
IC50: 20.5 µM | IC90: > 100 µM | CC50: 29 µM

CN(C)c1ccc(NC(=O)Cn2cc3c(n2)CCCC3)cc1
IC50: 13 µM | IC90: 18.6 µM

COc1ccc(-c2cc(O)cc(O)c2)cc1
IC50: 8.79 µM | IC90: > 100 µM

O=C(Nc1nc2c(F)cc(F)cc2s1)c1ccccn1
IC50: 0.34 µM | IC90: 1.49 µM | CC50: 3.89 µM

CCCCCC(=O)Nc1ccc(-c2csc(C)n2)cc1
IC50: 46 µM | IC90: > 100 µM

O=C(Oc1cccc(-c2cnc3ccccc3n2)c1)c1ccco1
IC50: 1.39 µM | IC90: > 100 µM

CN1CCN(c2ccccc2NC(=O)c2cc3c(s2)-c2ccccc2OC3)CC1
IC50: 8.62 µM | IC90: 17.7 µM | CC50: 10.7 µM

Clc1ccc(OCCCNCc2ccccc2)c(Br)c1
IC50: 23.2 µM | IC90: 25.1 µM | CC50: > 40 µM

CCOC(=O)CSc1nc(N)c(C#N)c(-c2ccc(OCC)cc2)c1C#N
IC50: 0.472 µM | IC90: 1.32 µM

COc1ccc(-c2nn(-c3ccccc3)cc2C(=O)Nc2nccs2)cc1
IC90: > 100 µM | CC50: > 40 µM

Cc1nnc(NC(=O)c2ccc3ccccc3n2)s1
IC50: 42.5 µM | IC90: > 100 µM | CC50: > 40 µM

Oc1cnn(-c2ccccc2)c1
IC90: > 100 µM

COc1ccc(SN=C2C(C)=CC(=O)C=C2C)cc1
IC50: 11 µM | IC90: 12.3 µM

CC(=O)/C=C(\C)Nc1ccccc1O
IC50: 0.992 µM | IC90: 2.44 µM | CC50: > 40 µM

CCOc1ccccc1/C=C/C(=O)c1ccc(Cl)cc1
IC50: 24.3 µM | IC90: 34.2 µM | CC50: > 40 µM

CCOc1ccc(N=CC2=C(O)CC(c3ccco3)CC2=O)cc1 (stereo unspecified)
IC50: 5.31 µM | IC90: > 100 µM

CCOC(=O)c1ccc(N/C=C/C(=O)C(C)(C)C)cc1
IC50: 4.61 µM | IC90: > 100 µM

COc1ccc2nc(NC(=O)c3cnccn3)sc2c1
CC50: > 40 µM

Cc1nc2cc(C(=O)OCC(=O)NC34CC5CC(CC(C5)C3)C4)ccc2n1-c1ccccc1
IC50: 7.9 µM | IC90: 12.1 µM

CCCCOc1ccc(C(=O)N/C(=C/C=C/c2ccccc2)C(=O)N2CCOCC2)cc1
IC50: 13.9 µM | IC90: > 100 µM | CC50: > 40 µM

O=C(/C=C/c1cn(CC(O)CN2CCCCC2)c2ccccc12)c1ccccc1 (stereo unspecified)
IC50: 2.94 µM | IC90: 3.34 µM | CC50: 29.5 µM

CCOC(=O)c1ccc(NC(=O)CCSCCc2ccccn2)cc1
IC50: 55.4 µM | IC90: > 100 µM

Cn1c(O)c(C(=Nc2ccccc2)SCc2ccccc2Cl)c(=O)n(C)c1=O
IC50: 2.23 µM | IC90: 2.76 µM | CC50: 22.7 µM

CCCOC(=O)c1ccc(NC(=O)CCC(=O)OCC)cc1
IC50: < 0.195 µM | IC90: > 100 µM

COc1ccc(CCNc2cc(C)nc3c(-c4ccc(Cl)cc4)c(C)nn23)cc1OC
IC50: 1 µM | IC90: 5.53 µM | CC50: > 40 µM

COc1ccc(Cn2c(SCc3cc(C)ccc3C)nc3cc(OC)c(OC)cc3c2=N)cc1
IC50: 2.59 µM | IC90: 2.83 µM | CC50: 7.51 µM

O=C(C[n+]1cc(-c2ccc(Cl)c(Cl)c2)n2c1CCC2)N1c2ccccc2Sc2ccccc21
IC50: 12.2 µM | IC90: 13.9 µM

CCCCCOc1ccc(C(=O)NCC(=O)NCC(=O)OCC)cc1
IC50: 5.74 µM | IC90: 6.53 µM | CC50: > 40 µM

O=C(c1ccc(Cl)cc1)C1CCCN(Cc2cnn(-c3ccccc3)c2)C1 (stereo unspecified)
IC50: 8.69 µM | IC90: 11.5 µM

CCCSc1cc(N2CCN(C)CC2)nc(-c2ccc(OC)cc2)n1
IC50: 10.9 µM | IC90: 12.2 µM | CC50: > 40 µM

Cc1nn2c(N3CCN(C)CC3)cc(C(C)(C)C)nc2c1-c1ccccc1
IC50: 3.03 µM | IC90: 4.55 µM | CC50: 25.3 µM

O=C(COc1ccc(Nc2ccccc2)cc1)OCC(=O)N1CCCCC1
IC50: 19.5 µM | IC90: > 100 µM

O=C(Nc1nc2ccc(F)cc2s1)c1ccccn1
IC50: < 0.195 µM | IC90: 0.248 µM | CC50: 3.01 µM
